According to patent US6093409A (Societe L'Oreal S.A., priority 1996, dated 2000):

Assay: "Hp-squalene" anti(singlet oxygen ^1 O2) test
Assay type: biochemical
Settings: 0.03% solutions

| SMILES | % INHIBITION [%] | percentage of inhibition compared with melatonin and the other reference singlet-oxygen inhibitors (comparison in words) |
| --- | --- | --- |
| COc1cc2c(CCNC(C)=O)c[nH]c2cc1O [6-Hydroxymelatonin] | ~78 | higher than that obtained for melatonin and the other reference singlet-oxygen inhibitors |
| CC1=C(/C=C/C(C)=C/C=C/C(C)=C/C=C/C=C(C)/C=C/C=C(C)/C=C/C2=C(C)C(=O)[C@@H](O)CC2(C)C)C(C)(C)C[C@H](O)C1=O [Astaxanthin] | 34 | – |
| CC1=C(/C=C/C(C)=C/C=C/C(C)=C/C=C/C=C(C)/C=C/C=C(C)/C=C/C2=C(C)C(=O)CCC2(C)C)C(C)(C)CCC1=O [Cantaxanthin] | 67 | – |
| O=c1c(O)c(-c2ccc(O)c(O)c2)oc2cc(O)cc(O)c12 [Quercetin] | 72 | – |
| C[C@@H]1O[C@@H](OC[C@H]2O[C@@H](Oc3c(-c4ccc(O)c(O)c4)oc4cc(O)cc(O)c4c3=O)[C@H](O)[C@@H](O)[C@@H]2O)[C@H](O)[C@H](O)[C@H]1O [Rutin] | 51 | – |
| CC1=C(/C=C/C(C)=C/C=C/C(C)=C/C=C/C=C(C)/C=C/C=C(C)/C=C/C2=C(C)CCCC2(C)C)C(C)(C)CCC1 [β-Carotene] | 62 | – |
